The subject of this experiment is C2C12 cells. Briefly: Western blot of UPRmt, prohibitins and cell cycle proteins in TAP-treated C2C12 cells. In kind it is cell-based, mouse. The following applies: 50 μg/ml TAP, FIG. 7. The procedure: Western blotting. C2C12 cells were lysed in a buffer composed of 50 mM Tris, 150 mM KCl, EDTA 1 mM, NP40 1%, nicotinamide 5 mM, sodium butyrate 1 mM and protease inhibitors cocktail (Roche) at pH 7,4. Proteins were separated by SDS-PAGE and transferred onto nitrocellulose membranes. Blocking and antibody incubations were performed in 3% BSA. The following primary antibodies were used: anti-cleavage caspase 3 (Cell Signalling); Anti-γH2AX (Millipore); anti-β-actin (Sigma). All secondary antibodies were from Jackson Immunoresearch. Antibody detection reactions were developed by enhanced chemiluminescence (Advansta, Calif., USA) using x-ray films or imaged using the c300 imaging system (Azure Biosystems). The following primary antibodies were used: anti-HSP60 (Enzo Life Science); anti-PHB (Biolegend); anti-PHB2 (Santa Cruz); anti-CKD4 (Novus biologicals); anti-CCND1 (Santa Cruz); anti-CCND3 (Santa Cruz); anti-HSP90 (BD Biosciences); HSP70 (Abcam); anti-MT-CO1 (Bio legend); anti-ATP5A (Bio legend); anti-Grp78 (Abcam); and anti-CLPP (Sigma).
On the technique in general: A western blot detects proteins with antibodies after separation by electrophoresis.

Regarding `CS(=O)(=O)c1ccc([C@@H](O)[C@@H](CO)NC(=O)C(Cl)Cl)cc1` [thiamphenicol], the UPRmt induction entry is given as “UPR^mt induction”, the “cell cycle gene expression” value is recorded as “induced” and the prohibitins expression entry is listed as “induced”.

(Values after patent publication US10905704B2, “Agents and methods using thereof for the prevention and treatment of stem cell muscle disorders” (ECOLE POLYTECHNIQUE FEDERALE DE LAUSANNE (EPFL), priority 2015, dated 2021).)
